Earlier results as cited in US20060058225A1, “Used of inhibitors of phospholipase a2 for the treatment, prevention or diagnosis of neural inflammatory or demyelinating disease” (McGill University, priority 2002, published 2006).
Read-outs that look alike come from different tables or passages of the source.

How the values were obtained:
[1] = molecular target: T1, cPLA2 (Homo sapiens, UniProt P47712)
T1 sequence (P47712 1-749): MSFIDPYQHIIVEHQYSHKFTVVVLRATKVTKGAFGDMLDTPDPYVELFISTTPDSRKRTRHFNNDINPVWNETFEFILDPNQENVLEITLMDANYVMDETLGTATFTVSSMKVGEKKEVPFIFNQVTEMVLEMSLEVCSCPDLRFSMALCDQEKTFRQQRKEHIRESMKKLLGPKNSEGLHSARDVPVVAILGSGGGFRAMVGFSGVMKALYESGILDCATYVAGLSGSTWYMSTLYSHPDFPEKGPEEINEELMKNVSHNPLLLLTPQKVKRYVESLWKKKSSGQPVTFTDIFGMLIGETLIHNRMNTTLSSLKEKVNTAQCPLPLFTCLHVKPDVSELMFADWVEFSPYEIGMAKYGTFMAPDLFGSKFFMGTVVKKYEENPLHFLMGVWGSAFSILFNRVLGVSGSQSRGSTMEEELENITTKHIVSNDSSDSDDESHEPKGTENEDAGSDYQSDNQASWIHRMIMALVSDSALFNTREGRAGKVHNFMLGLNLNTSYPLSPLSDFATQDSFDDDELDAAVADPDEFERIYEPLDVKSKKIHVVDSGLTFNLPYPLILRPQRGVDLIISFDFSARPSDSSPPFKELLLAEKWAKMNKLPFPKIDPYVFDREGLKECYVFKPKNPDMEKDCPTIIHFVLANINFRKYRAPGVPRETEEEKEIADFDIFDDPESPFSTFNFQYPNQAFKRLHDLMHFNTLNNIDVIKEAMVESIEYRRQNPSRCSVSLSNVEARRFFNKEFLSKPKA

[2] = system: Ca++-independent PLA2
[3] = system: EAE
[4] = system: EAE; conditions: for disease severity score in treated mice: timing of treatment not stated
[5] = system: MS; conditions: for effect on relapses: MS patients
[6] = system: EAE; conditions: guinea pigs
[7] = system: EAE; remark: listed apart in the source
[8] = system: 180 kDa calcium-dependent form of cPLA2; conditions: isolated from human brain
[9] = system: sPLA2
[10] = treatment given after symptoms occurred

O=C1O/C(=C/Br)CCC1c1cccc2ccccc12 (stereo not shown) [bromoenol lactone]
inhibition of cPLA2 [1]: inhibitors
inhibition of Ca++-independent PLA2 [2]: inhibitors

MT-II: Metallothinine (MT), thought to protect cells from reactive oxygen species
clinical score ([3]; rats treated starting at the day of onset of symptoms, controls 4.5): 2

O=C(NN=C1CCCCC1)C(=O)NN=C1CCCCC1 [cuprizone]
clinical score in treated mice ([4]; treatment before symptoms appeared (cuprizone: one week before EAE induction)): 3.3

estrogen
delay of disease onset ([4]; mice): about 10 days
reduction of EAE incidence ([4]; mice, timing not given): ~30%
disease severity score in treated mice [4]: 1.5

IFN-γ: interferon gamma
effect on relapses [5]: increases the severity of the rate of relapse

O=C(O)c1cc(/N=N/c2ccc(S(=O)(=O)Nc3ccccn3)cc2)ccc1O [sulfasalazine]
disease incidence [6]: reduced disease incidence

CC1=C(/C=C/C(C)=C/C=C/C(C)=C/C(N)=O)C(C)(C)CCC1 [retinamide]
relapse ([7]; given after disease symptoms appeared): no relapse
clinical grade, end of course ([7]; given prior to EAE induction): 0.75
relapse ([7]; given prior to EAE induction): no sign of relapse
clinical grade reached ([7]; given prior to EAE induction, controls 3 during relapses): 2
clinical grade, end of course [7, 10]: 2
clinical grade, start of course [7, 10]: 4

CCCOc1cc([C@]2(C)CNC(=O)O2)ccc1OC [Mesopram]
clinical score in treated mice ([4]; treatment after symptoms began / at first clinical signs): 2.7
EAE occurrence ([3]; rats treated before the onset of symptoms): prevented

bromophenacyl bromide
inhibition of 180 kDa calcium-dependent cPLA2 [8]: inhibited

CN1C(C(=O)Nc2ccccn2)=C(O)c2ccccc2S1(=O)=O [piroxicam]
mean clinical grade/score in treated rats ([3]; rats): 1.5

O=C(CBr)c1ccc(Br)cc1 [p-bromophenacyl bromide]
inhibition of sPLA2 activity [9]: blocked

Glatiramer acetate
effect on relapses [5]: decreases the rate of relapse
side effects ([5]; human, in vivo): cardiovascular problems such as chest pain, flushing and tachycardia

NS(=O)(=O)c1cccc2c1c([N+](=O)[O-])cc1nc(O)c(O)nc12 [NBQX]
clinical score in treated animals ([7]; in vivo): 1.5

O=C1c2c(O)ccc(O)c2C(=O)c2c(NCCNCCO)ccc(NCCNCCO)c21 [mitroxantrone]
effect on relapses [5]: reduces relapse rate
side effects ([5]; patients): cardiac toxicity

B1: MBP: myelin basic protein fed for oral tolerance (protein, UniProt P02686 1-304, looked up)
Myelin basic protein: MGNHAGKRELNAEKASTNSETNRGESEKKRNLGELSRTTSEDNEVFGEADANQNNGTSSQDTAVTDSKRTADPKNAWQDAHPADPGSRPHLIRLFSRDAPGREDNTFKDRPSESDELQTIQEDSAATSESLDVMASQKRPSQRHGSKYLATASTMDHARHGFLPRHRDTGILDSIGRFFGGDRGAPKRGSGKDSHHPARTAHYGSLPQKSHGRTQDENPVVHFFKNIVTPRTPPPSQGKGRGLSLSRFSWGAEGQRPGFGYGGRASDYKSAHKGFKGVDAQGTLSKIFKLGGRDSRSGSPMARR
disease severity score in treated mice [4]: 0.6
maximum disease severity score ([3]; rats fed prior to disease induction, control 4): 1.4
reduction of EAE incidence ([7]; animals, species not given): 80%
